# According to ChEMBL document CHEMBL3351946, “Design and synthesis of potent antitumor water-soluble phenyl N-mustard-benzenealkylamide conjugates via a bioisostere approach” (Eur J Med Chem, 2014):
# What was measured:
# CCRF-CEM [1] = assay: Cytotoxicity against human CCRF-CEM cells assessed as growth inhibition after 72 hrs by Alamar Blue assay; assay type: functional, cell-based
# CCRF-CEM [2] = assay: Cytotoxicity against vinblastine-resistant human CCRF-CEM cells assessed as growth inhibition after 72 hrs by Alamar Blue assay; assay type: functional, cell-based
# [3] = Cytotoxicity against human H1299 cells assessed as growth inhibition after 72 hrs by Alamar Blue assay; assay type: functional, cell-based; conditions: NCI-H1299, 72 h
# [4] = Cytotoxicity against human H460 cells assessed as growth inhibition after 72 hrs by Alamar Blue assay; assay type: functional, cell-based; conditions: NCI-H460, 72 h
# [5] = Cytotoxicity against human PC3 cells assessed as growth inhibition after 72 hrs by Alamar Blue assay; assay type: functional, cell-based; conditions: PC-3, 72 h
# [6] = Cytotoxicity against human HCT116 cells assessed as growth inhibition after 72 hrs by Alamar Blue assay; assay type: functional, cell-based; conditions: HCT-116, 72 h
# CCRF-CEM [7] = assay: Resistance factor, ratio of IC50 for vinblastine-resistant human CCRF-CEM cells to IC50 for human CCRF-CEM cells; assay type: functional
SMILES,IC50 (CCRF-CEM [1]) [µM],IC50 (CCRF-CEM [2]) [µM],IC50 [3] [µM],IC50 [4] [µM],IC50 [5] [µM],IC50 [6] [µM],Ratio IC50 (CCRF-CEM [7])
CC[C@]1(O)C[C@H]2CN(CCc3c([nH]c4ccccc34)[C@@](C(=O)OC)(c3cc4c(cc3OC)N(C=O)[C@H]3[C@@](O)(C(=O)OC)[C@H](OC(C)=O)[C@]5(CC)C=CCN6CC[C@]43[C@@H]65)C2)C1 [VINCRISTINE],0.00232,2.13,,,,,
CN(C)CC(=O)Nc1cccc(NC(=O)Nc2ccc(N(CCCl)CCCl)cc2)c1,0.78,2.7,10.6,8.74,19,9.56,3.46
O=C(Nc1ccc(N(CCCl)CCCl)cc1)Nc1cccc(C(=O)NCCN2CCCCC2)c1,0.57,28.4,10.3,12.8,4.54,5.47,49.91
O=C(CCN1CCCCC1)Nc1cccc(NC(=O)Nc2ccc(N(CCCl)CCCl)cc2)c1,0.39,6.01,4.63,7.88,5.73,3.51,15.41
O=C(Nc1ccc(N(CCCl)CCCl)cc1)Nc1cccc(C(=O)NCCN2CCCC2)c1,0.53,126,18.7,34.1,6.54,4.9,238.42
CN(C)CCNC(=O)c1ccc(NC(=O)Nc2ccc(N(CCCl)CCCl)cc2)cc1,0.57,106,32,31.6,6.25,5.64,186.47
O=C(CN1CCOCC1)Nc1cccc(NC(=O)Nc2ccc(N(CCCl)CCCl)cc2)c1,3.87,1.32,26.4,19.5,35.8,13,0.34
O=C(CCN1CCC(N2CCCCC2)CC1)Nc1cccc(NC(=O)Nc2ccc(N(CCCl)CCCl)cc2)c1,1.63,1.53,11,14.2,22.1,15.7,0.94
O=C(Nc1ccc(C(=O)NCCN2CCCCC2)cc1)Nc1ccc(N(CCCl)CCCl)cc1,0.43,48.8,7.58,9.44,4.25,5.25,113.58
CCN(CC)CCC(=O)Nc1cccc(NC(=O)Nc2ccc(N(CCCl)CCCl)cc2)c1,0.86,13,5.77,6.79,13,3.21,15.62
O=C(CCN1CCCC1)Nc1cccc(NC(=O)Nc2ccc(N(CCCl)CCCl)cc2)c1,0.67,27.1,4.33,9.84,10.3,5.11,40.42
O=C(CCN1CCC(N2CCCCC2)CC1)Nc1ccc(NC(=O)Nc2ccc(N(CCCl)CCCl)cc2)cc1,0.72,120,36,14.5,30,11.1,166.17
O=C(CCN1CCOCC1)Nc1ccc(NC(=O)Nc2ccc(N(CCCl)CCCl)cc2)cc1,1.06,23.4,15.2,3.95,9.74,7.02,22.09
O=C(CN1CCC(N2CCCCC2)CC1)Nc1cccc(NC(=O)Nc2ccc(N(CCCl)CCCl)cc2)c1,30.4,1.81,12.8,12.3,25.9,6.15,0.06
CC[C@]1(O)C[C@@H]2CN(CCc3c([nH]c4ccccc34)[C@@](C(=O)OC)(c3cc4c(cc3OC)N(C)[C@H]3[C@@](O)(C(=O)OC)[C@H](OC(C)=O)[C@]5(CC)C=CCN6CC[C@]43[C@@H]65)C2)C1 [VINBLASTINE],0.0013,0.67,,,,,
